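Protocol summary: plate cells (96-well), add compound at 5 concentrations, incubate 48 h, interpolate endpoints linearly. The concentration for 50% growth inhibition is given as GI50. At the TGI there is no net growth.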
Experiments:
Test in all cases: NCI tumour cell line growth inhibition, 48 h
HCT-15 colon = tested on: HCT-15 colon
MCF7 breast = tested on: MCF7 breast
MOLT-4 leukemia = tested on: MOLT-4 leukemia
OVCAR-8 ovarian = tested on: OVCAR-8 ovarian
SK-OV-3 ovarian = tested on: SK-OV-3 ovarian
EKVX NSCLC = tested on: EKVX NSCLC
T-47D breast = tested on: T-47D breast

Compound | GI50 (HCT-15 colon) [µM] | TGI (HCT-15 colon) [µM] | GI50 (MCF7 breast) [µM] | TGI (MCF7 breast) [µM] | GI50 (MOLT-4 leukemia) [µM] | TGI (MOLT-4 leukemia) [µM] | GI50 (OVCAR-8 ovarian) [µM] | TGI (OVCAR-8 ovarian) [µM] | GI50 (SK-OV-3 ovarian) [µM] | TGI (SK-OV-3 ovarian) [µM] | GI50 (EKVX NSCLC) [µM] | TGI (EKVX NSCLC) [µM] | GI50 (T-47D breast) [µM] | TGI (T-47D breast) [µM]
O=c1[nH]c(=O)n(C2CC(O)C(CO)O2)cc1CO (configuration not stated) | > 100 | > 100 | > 100 | > 100 | > 100 | > 100 | > 100 | > 100 | > 100 | > 100 | – | – | – | –
COc1ccc(-c2oc(=O)ccc2-c2cc(OC)c(OC)c(OC)c2)cc1F | 5.42 | > 100 | 9.74 | > 100 | 22.4 | > 100 | 24.1 | > 100 | 80 | > 100 | 46.4 | > 100 | 23.9 | > 100
N#Cc1c(-c2ccc(F)cc2)c(-c2ccc(F)cc2)nn(CCO)c1=O | – | 8.6 | – | > 100 | – | > 100 | – | – | – | > 49.6 | – | > 76.6 | – | > 100
Ic1ccc(-n2nnnc2-c2cnoc2-c2ccccc2)cc1 | 29.1 | > 73.6 | 35.2 | > 100 | 70 | > 100 | > 50.4 | > 77 | > 65.4 | > 100 | 7.49 | > 21.7 | 48.8 | > 100
O=c1cc(-c2ccccc2)[nH]c2c(S)cccc12 | – | > 100 | – | > 100 | – | > 100 | – | > 100 | – | > 100 | – | – | – | > 100
CC(=C\c1ccccc1)/C=C(\C#N)C(N)=O | – | > 10 | – | > 10 | – | – | – | > 10 | – | > 10 | – | > 10 | – | > 10
Cc1cn2c(/C=C3\C(=O)Nc4ccc(O)cc43)c(-c3ccc(Cl)cc3)nc2s1 | 21.4 | > 100 | 14.2 | 33.8 | 9.97 | 27.1 | 18.4 | > 100 | 25.9 | 62.7 | 14.9 | 60.6 | 8.96 | 30.2
COc1c(OC)c(OC)c(C(=O)/C=C/c2ccccc2)c(OC)c1OC | – | 23 | – | 24.1 | – | 36.3 | – | 34 | – | 32.9 | – | 35.5 | – | 23.7
COc1cc(C2c3cc4c(cc3C(O)C(CO)C2CO)OCO4)cc(OC)c1OC (configuration not stated) | 4.41 | > 100 | 0.355 | > 100 | 1.59 | > 100 | 2.76 | > 100 | 1.57 | > 100 | 1.27 | > 71 | – | > 100
N#C/C=C(\c1ccc([N+](=O)[O-])cc1)n1nnc2cc(Cl)c(Cl)cc21 | 1.85 | 5.36 | 0.738 | 3.32 | 2.71 | > 100 | 3.02 | 12 | 5.1 | 18.5 | 1.91 | 4.67 | – | –
COc1ccc(C(O)c2nccn2C)c(OC)c1 (configuration not stated) | – | > 100 | – | > 100 | – | > 100 | – | > 100 | – | > 100 | – | > 100 | – | –
Nc1c(C(=O)Nc2cccc(Br)c2)sc2nc3c(cc12)C(=O)CCC3 | 0.468 | > 100 | 0.373 | > 100 | 18.5 | > 100 | 33.7 | > 100 | 0.501 | > 100 | – | – | 2.13 | > 100
CCCCCCNC(=O)c1nc(-c2ccccc2)oc1Cc1ccc(OP(=O)(O)O)cc1 | 17.8 | 37.2 | 15.3 | 29.9 | 20.9 | 54.8 | 20.2 | 45.6 | 20 | 47.6 | – | – | 16.5 | 30.8
CC1=CC(=O)[C@@H](O)[C@]2(C)[C@H]3[C@@]4(O)OC[C@]35[C@H]([C@@H](C)[C@H]4O)[C@@H](O)C(=O)O[C@@H]5C[C@@H]12 | – | 2.48 | – | 0.546 | – | – | – | 5.82 | – | > 20.5 | – | 6.31 | – | –
O=c1c2ccccc2sc2cccc(NCCCN3CCN(CCCNc4cccc5sc6ccccc6c(=O)c45)CC3)c12 | – | > 100 | – | > 100 | – | > 100 | – | – | – | > 100 | – | > 100 | – | > 100
COc1ccccc1N1CCN(CCCn2c(=O)c3c(OC)nc(C)cc3c(=O)n2-c2ccccc2)CC1 | > 100 | > 100 | > 100 | > 100 | > 100 | > 100 | – | – | > 100 | > 100 | > 100 | > 100 | > 100 | > 100
COC12C=C/C(=C(/C(=O)OCc3ccncc3)C(=O)CCCCCCCCC3(OC)C=C/C(=C(/C(=O)OCc4ccncc4)C(=O)CCCCCCCC1)O3)O2 | 0.548 | 1.74 | – | – | 0.172 | 1.85 | 0.219 | 50 | 2.03 | 9.02 | 1.21 | 5.1 | 0.706 | 21.5

Source: PubChem BioAssay (NCI)
